From US10947188B2, “Small molecule ferroptosis inducers” (THE TRUSTEES OF COLUMBIA UNIVERSITY IN THE CITY OF NEW YORK, priority 2016, dated 2021)
Where a SMILES comes first, the peptide text is derived from it. The star is where a group is joined. Cbz = O=C(OCc1ccccc1)*

Key:
[1] = Cobalt (II) binding assay in vitro (absorbance spectrum); conditions: absorbance 300-700 nm
Method: For each cluster I compound (CIL13, −52, and −64), prepared two-fold dilution series with DMSO. We added 30 μL per well of either water or 10 μM cobalt (II) chloride solution to each well of a 384-well plate. Dilution series of each compound in DMSO were added by 10 μL per well. After solutions had been mixed by shaking of the plate using a Victor 3 plate reader (PerkinElmer), absorbance was scanned between 300 and 700 nm for each compound. Finally the following Absorbance value for each compound was plotted (see FIG. 9B):
[formula] where Abs is the absorbance at each wavelength. Search of Commercially Available Structural Analogs of CIL41/70.

HT-1080 cells = assay: Cell viability assay (Alamar Blue), lethal compounds with or without modulators; type: cell-based; conditions: for effect of ferroptosis inhibitors (α-tocopherol, deferoxamine) on lethality: cotreatment
Method: 1,000 cells per 36 μl were seeded in each well in 384-well plates. Lethal compounds were dissolved, and a twofold, 12-point dilution series was prepared in DMSO. Compound solutions were further diluted with media at 1:25, and 4 μl per well of the diluted solutions was added to cell cultures immediately after cells were seeded. […] When other cell-death-modulating compounds (100 nM sodium selenite, 1 μM cerivastatin, 100 μg/mL mevalonic acid) were used in cotreatments, they were supplemented to cell culture for 24 h before lethal compounds were added to cell culture, after which cells were further incubated for 24 h at 37° C. under 5% CO2. On the day of the viability measurement, we added 10 μl per well of 50% Alamar Blue diluted in media (Life Technologies) and further incubated the cells at 37° C. for 6 h. Fluorescence intensity (excitation/emission: 530/590) was measured with a Victor 3 plate reader (PerkinElmer), and the normalized viability was calculated as VL=(IL−I0)/(IV−I0), where VL, I0, IV, and IL are the normalized viability and the raw fluorescence intensities from the wells containing media, cells treated with a vehicle (negative control), and cells with the lethal compound (L), respectively. When the effect of a chemical modulator (M) on L was calculated, we instead used the equation VL|M=(IM,L−I0)/(IM,V−I0), where VL|M, IM,L and IM,V are the normalized viability, and fluorescence intensity from cells treated with […], respectively. The viability was typically measured in biological triplicate unless otherwise specified. A representative dose-response curve, the mean and standard error of normalized viability from one replicate were plotted. […]

[2] = system: BJeLR, DRD, BJeHLT, and BJeH; assay: Viability of four engineered BJ cell lines (HRAS G12V selectivity); type: cell-based, human; conditions: 48 h
HT-1080 or BJeLR cells = assay: Analysis of ROS generation (H2-DCFDA flow cytometry); type: cell-based
Method: Grew 200,000 HT-1080 or BJeLR cells in six-well plates at 37° C. for 16 h. Cells were treated with test compounds, trypsinized, pelleted, and washed once with PBS. For lipophilic or aqueous ROS detection, cells were re-suspended in Hanks' Balanced Salt Solution (HBSS; Life Technologies) containing test compounds as well as C11-BODIPY(581/591) (2 μM) or H2-DCFDA (25 μM), respectively (Life Technologies), and incubated for 10 min at 37° C. Cells were then pelleted, re-suspended in 500 μL HBSS, strained through a 40-μm cell strainer (BD Falcon), and analyzed using a BD Accuri C6 flow cytometer (BD Biosciences). Both dyes were measured in the FL1 channel. Experiments were done in biological triplicates.

GPX4 [3] = assay: Western blotting of GPX4 protein abundance; type: cell-based, human
Method: Seeded 300,000 cells (HT-1080 or BJeLR) per well in six-well plates. For cotreatment, ferroptosis inducers (10 μM erastin for 11 h, 0.5 μM (1S, 3R)-RSL3 for 2 h, or 5 μM FIN56) and 100 μM α-tocopherol were added to cell culture at the same time, and cells were then incubated for 10 h (FIG. 2E). When other death-modulating compounds (100 nM sodium selenite, 1 μM cerivastatin, 100 μg/mL mevalonic acid, 30 μM C75, or 2 μM cerulenin) were used in cotreatments, cells were pre-incubated with the modulators for 24 h before being treated with ferroptosis inducers for 6 h. Cell lysis, SDS-PAGE and protein transfer to PVDF membrane were performed as previously described (Dixon et al. 2012). We used the following antibodies: anti-human α-tubulin (Santa Cruz Biotechnology, sc-32293, 1:10,000 dilution), anti-human GPX4 (Abcam, ab41787, 1:2,000 dilution), anti-human GPX1 (R&D Systems, AF3798, 1:1,000 dilution), and anti-human SQS (Abcam, ab109723 for full-length, ab195046 for truncated, both at 1:1,000 dilution). Secondary antibodies were from LI-COR (1:3,000 dilution). The PVDF membranes labeled with primary and secondary antibodies were scanned using an Odyssey Imaging System (LI-COR). Experiments were performed in biological triplicates, and the mean±s.e. of intensity was plotted.

GPX4 [4] = biological target: T1, GPX4 (Homo sapiens, UniProt P36969); assay: GPX4 enzymatic activity assay in lysates of treated cells (LC-MS); type: cell-based; conditions: BJeLR; 5 μM FIN56 for 10 h
T1 construct: Cells were sonicated to make cell lysates that were then cleared by centrifugation; endogenous in cells; host or cells: BJeLR cells (lysate of compound-treated cells)
T1 sequence (P36969 1-197): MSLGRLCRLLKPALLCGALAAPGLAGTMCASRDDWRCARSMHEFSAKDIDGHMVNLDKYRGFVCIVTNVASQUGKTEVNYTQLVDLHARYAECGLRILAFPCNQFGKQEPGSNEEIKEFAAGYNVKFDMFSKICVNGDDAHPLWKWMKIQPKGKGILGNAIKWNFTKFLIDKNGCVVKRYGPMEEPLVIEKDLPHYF
Method: Seeded 17 million BJeLR cells in 225-cm^2 tissue culture flasks (Corning). We then added vehicle (0.1% DMSO for 11 h) or test compound (10 μM erastin for 11 h, 0.5 μM (1S,3R)-RSL3 for 2 h, or 5 μM FIN56 for 10 h). The GPX4 enzymatic activity assay was performed as described previously (Yang et al. 2014). Briefly, 10 million cells were resuspended in cell lysis buffer. Cells were sonicated to make cell lysates that were then cleared by centrifugation at 14,000 r.p.m. for 10 min. The protein concentration of the cleared cell lysates was determined via Bradford protein assay. Mixed 200 μg of cellular protein with phosphatidyl choline hydroperoxide, a GPX4-specific substrate, and reduced glutathione, a GPX4 cofactor. The mixture was incubated at 37° C. for 30 min and then subjected to lipid extraction using chloroform:methanol (2:1) solution. The lipid extract was evaporated using a Rotavap and re-dissolved in 100% ethanol before being injected into the LC-MS instrument for 2-linoleoyl1-palmitoyl-sn-glycero-3-phosphocholine (PLPC) quantitation.

Question: With Cc1cccnc1Nc1nc(-c2ccccn2)cs1 [CIL13] as the molecule, how does the “binding to cobalt (II) in vitro” value [1] read?
Answer: bound to cobalt (II) in vitro

Question: Which results are given for N/C(=N\OC(=O)C12CC3CC(CC(C3)C1)C2)c1ccccc1 [CIL41]?
Answer: effect of ferroptosis inhibitors (α-tocopherol, deferoxamine) on lethality (HT-1080 cells; HT-1080 cells): strongly suppressed by ferroptosis inhibitors; oncogenic RAS selectivity in the BJ engineered cell line series [2]: did not exhibit oncogenic RAS selectivity; ROS accumulation detected using H2-DCFDA (HT-1080 or BJeLR cells): induced ROS accumulation

Question: For C[C@@H]1C[C@@H]([C@H](O)CC2CC(=O)NC(=O)C2)C(=O)[C@@H](C)C1 [cycloheximide, Cycloheximide, reference compound], which “amount of GPX4 protein compared to α-tubulin after translation inhibition” value (GPX4 [3]) is on record?
Answer: did not show substantially decreased amounts of GPX4 protein

Question: For O=S(=O)(NC1CCCCC1)c1ccc2c(c1)C(=NO)c1cc(S(=O)(=O)NC3CCCCC3)ccc1-2 [FIN56, N2,N7-dicyclohexyl-9-(hydroxyimino)-9H-fluorene-2,7-disulfonamide], which “effect of ferroptosis inhibitors (α-tocopherol, deferoxamine) on lethality” value (HT-1080 cells; HT-1080 cells) is on record?
Answer: fully suppressed

Question: What about the “suppression of lethality by mevalonate-pathway modulators (FPP, YM-53601, idebenone) and α-tocopherol” value (HT-1080 cells; HT-1080 cells, modulatory profiling scheme) of the same molecule?
Answer: potently suppressed by all the compounds

Question: And the “oncogenic RAS selectivity in the BJ engineered cell line series” value [2]?
Answer: greater oncogenic RAS selectivity

Question: And the “potency compared to CIL56” value ([2]; BJ cell line series)?
Answer: greater potency

Question: And the “kinetics of ROS accumulation compared to (1S, 3R)-RSL3” value (HT-1080 or BJeLR cells; BJeLR, 5 μM FIN56 vs 0.5 μM (1S, 3R)-RSL3, 25 μM H2-DCFDA)?
Answer: slower to induce the accumulation of ROS

Question: And the “GPX4 activity in cell lysates” value (GPX4 [4])?
Answer: loss of GPX4 activity

Question: And the “abundance of GPX4 protein” value (GPX4 [3]; BJeLR, cotreatment with 100 μM α-tocopherol, 10 h, FIN56 5 μM)?
Answer: substantially decreased

Question: With CC(C)C[C@@H](C=O)NC(=O)[C@H](CC(C)C)NC(=O)[C@H](CC(C)C)NC(=O)OCc1ccccc1 [MG132, reference compound] (Cbz-Leu-Leu-Leu-aldehyde) as the molecule, how does the “effect on FIN56-induced decrease of GPX4 protein abundance” value (GPX4 [3]; 5 μM FIN56) read?
Answer: did not inhibit GPX4 degradation significantly

Question: Which results are given for O=S(=O)(c1ccc2c(c1)C(=NO)c1cc(S(=O)(=O)N3CCCCC3)ccc1-2)N1CCCCC1 [CIL56, 2,7-bis(piperidin-1-ylsulfonyl)-9H-fluoren-9-one oxime]?
Answer: effect of ferroptosis inhibitors (α-tocopherol, deferoxamine) on lethality (HT-1080 cells; HT-1080 cells): suppressed the lethality of low concentrations; suppression of lethality by antioxidants and iron chelators (HT-1080 cells; ferroptosis-sensitive HT-1080 cells): up to 10 fold; oncogenic RAS selectivity in the BJ engineered cell line series [2]: retained some degree of selectivity toward oncogenic-RAS-expressing cells

Question: Which “effect of ferroptosis inhibitors (α-tocopherol, deferoxamine) on lethality” value (HT-1080 cells; HT-1080 cells) does the source give for N/C(Cc1ccc(Cl)cc1)=N\OC(=O)c1cccc2ccccc12 [CIL70] here?
Answer: strongly suppressed by ferroptosis inhibitors

Question: And the “oncogenic RAS selectivity in the BJ engineered cell line series” value [2]?
Answer: did not exhibit oncogenic RAS selectivity

Question: And the “ROS accumulation detected using H2-DCFDA” value (HT-1080 or BJeLR cells)?
Answer: induced ROS accumulation
